According to ChEMBL document CHEMBL4765227, “Hit to lead optimization of a series of N-[4-(1,3-benzothiazol-2-yl)phenyl]acetamides as monoacylglycerol lipase inhibitors with potential anticancer activity” (Eur J Med Chem, 2016):

Columns and labels:
Assay type in all cases: functional
NCI-H322M = test: Growth inhibition of human NCI-H322M cells incubated for 48 hrs by sulforhodamine B assay
MCF7 = test: Growth inhibition of human MCF7 cells incubated for 48 hrs by sulforhodamine B assay
CAKI-1 = test: Growth inhibition of human CAKI-1 cells incubated for 48 hrs by sulforhodamine B assay
HOP-62 = test: Growth inhibition of human HOP-62 cells incubated for 48 hrs by sulforhodamine B assay; conditions: for CC50: read-out: LC50 (the source's name)
CCRF-CEM = test: Growth inhibition of human CCRF-CEM cells incubated for 48 hrs by sulforhodamine B assay
SF-539 = test: Growth inhibition of human SF-539 cells incubated for 48 hrs by sulforhodamine B assay

SMILES	GI50 (NCI-H322M)	LC50 (concentration killing 50% of cells) (NCI-H322M)	TGI (NCI-H322M)	GI50 (MCF7)	LC50 (MCF7)	TGI (MCF7)	GI50 (CAKI-1)	LC50 (concentration killing 50% of cells) (CAKI-1)	TGI (CAKI-1)	GI50 (HOP-62)	TGI (HOP-62)	CC50 (HOP-62)	GI50 (CCRF-CEM)	TGI (CCRF-CEM)	CC50 (CCRF-CEM; read-out: LC50 (the source's name))	GI50 (SF-539)	LC50 (SF-539)	TGI (SF-539)
O=C(CNc1c(Cl)cccc1Cl)Nc1ccc(-c2nc3ccccc3s2)cc1	1.8 µM	7.07 µM	3.57 µM	0.0371 µM	39.8 µM	2.49 µM	2.3 µM	27.4 µM	6.71 µM	3.31 µM	11.8 µM	77.8 µM	0.657 µM	2.97 µM	45.9 µM	1.83 µM	6.34 µM	3.41 µM
O=C(CNc1ccc(Cl)cc1)Nc1ccc(-c2nc3ccccc3s2)cc1	2 µM	12.3 µM	4.65 µM	0.0325 µM	> 100 µM	2.5 µM	2.74 µM	34.4 µM	10.5 µM	3.34 µM	12.9 µM	> 100 µM	–	–	–	1.86 µM	7.14 µM	3.65 µM
